Activity calls are given as the source filed them. The rule behind the calls is not given here.
Experiments:
U-87 MG = assay: Antiproliferative activity against human U-87 MG cells incubated for 48 hrs by CCK8 assay; format: functional, cell-based, U-87MG ATCC
4T1 [1] = assay: Antiproliferative activity against mouse 4T1 cells incubated for 48 hrs by CCK8 assay; format: functional, cell-based; conditions: 4T1, 48 h
PC-3 = assay: Antiproliferative activity against human PC-3 cells incubated for 48 hrs by CCK8 assay; format: functional, cell-based; conditions: PC-3, 48 h
MCF7 = assay: Antiproliferative activity against human MCF7 cells incubated for 48 hrs by CCK8 assay; format: functional, cell-based; conditions: MCF7, 48 h
HepG2 = assay: Antiproliferative activity against human HepG2 cells incubated for 48 hrs by CCK8 assay; format: functional, cell-based; conditions: HepG2, 48 h
MDA-MB-231 = assay: Antiproliferative activity against human MDA-MB-231 cells incubated for 48 hrs by CCK8 assay; format: functional, cell-based; conditions: MDA-MB-231, 48 h
[2] = Antiproliferative activity against human MCF-10A cells incubated for 48 hrs by CCK8 assay; format: toxicity, cell-based
[3] = AUC in Sprague-Dawley rat at 10 mg/kg, iv by HPLC-MS analysis; format: ADME, organism-based; conditions: in vivo
4T1 [4] = assay: Induction of intracellular ROS generation in mouse 4T1 cells at 0.5 uM incubated for 24 hrs by DCFH-DA probe based CLSM analysis; format: functional, cell-based
4T1 [5] = assay: Induction of mitochondrial damage in mouse 4T1 cells assessed as increase in green fluorescence at 0.5 uM incubated for 24 hrs by JC-1 staining based CLSM analysis; format: functional, cell-based
[6] = Cmax in Sprague-Dawley rat at 10 mg/kg, iv by HPLC-MS analysis; format: ADME, organism-based; conditions: in vivo
4T1 [7] = assay: Anti-metastatic activity in mouse 4T1 cells assessed as wound closure at 0.5 uM incubated for 24 hrs by scratch-wound assay (reference value: 42 %); format: functional
[8] = Toxicity in BALB/c mouse implanted with mouse 4T1 cells assessed as animal death at 10 mg/kg, iv once every two days measured for 9 to 10 days; format: organism-based; conditions: in vivo, time 9-10 day
4T1 [9] = assay: Antitumor activity against mouse 4T1 cells implanted in BALB/c mouse assessed as tumor growth inhibition at 10 mg/kg, iv once every two days for 14 days; format: functional, organism-based; conditions: time 14.0 day
[10] = Toxicity in BALB/c mouse implanted with mouse 4T1 cells assessed as animal death administered intravenously once every two days at equivalent dose of 10 mg/kg of HCPT for 14 days; format: organism-based; conditions: in vivo, iv, 336 h, time 14 day
[11] = Toxicity in BALB/c mouse implanted with mouse 4T1 cells assessed as body weight loss administered intravenously once every two days at equivalent dose of 10 mg/kg of HCPT for 14 days; format: organism-based; conditions: in vivo, iv, 336 h, time 14 day
4T1 [12] = assay: Antitumor activity against mouse 4T1 cells implanted in BALB/c mouse assessed as tumor growth inhibition administered intravenously once every two days at equivalent dose of 10 mg/kg of HCPT for 14 days; format: functional, organism-based; conditions: route iv, time 14.0 day
[13] = Toxicity in BALB/c mouse implanted with mouse 4T1 cells assessed as damage in major organ tissues administered intravenously once every two days at equivalent dose of 10 mg/kg of HCPT for 14 days; format: organism-based; conditions: in vivo, iv, 336 h, time 14 day
[14] = Cytotoxicity against human MCF-10A cells assessed as cell viability at 5 to 50 uM incubated for 24 hrs by CCK8 assay relative to control; format: toxicity, cell-based; conditions: dose 5-50 µM, read-out: Activity
[15] = Drug internalization in mouse 4T1 cells assessed as fold change in green fluorescence in cytoplasm at 20 uM measured after 8 hrs by flow cytometry relative to K-Nap; format: ADME, cell-based; conditions: 4t1, 8 h
[16] = Prodrug release in human MCF7 cells assessed as Nap release at 20 uM measured after 2 hrs by confocal microscopy; format: ADME, cell-based; conditions: mcf7, 2 h
[17] = Drug localization in mitochondria of mouse 4T1 cells at 20 uM measured after 2 hrs by flow cytometry; format: ADME; conditions: 4t1, 2 h
[18] = Prodrug stability in 5 uM to 5 mM GSH assessed as compound remaining at 20 uM measured for 24 hrs by RP-HPLC analysis; format: ADME
[19] = Drug internalization in mouse 4T1 cells assessed as green fluorescence in cytoplasm at 20 uM measured after 2 hrs by CLSM analysis; format: ADME, cell-based; conditions: 4t1, 2 h
[20] = Prodrug release in mouse 4T1 cells assessed as Nap release at 20 uM measured after 2 hrs by confocal microscopy; format: ADME, cell-based; conditions: 4t1, 2 h
[21] = Prodrug release in human MCF-10A cells assessed as Nap release at 20 uM measured after 2 hrs by confocal microscopy; format: ADME, cell-based
[22] = Drug internalization in mouse 4T1 cells assessed as fold change in green fluorescence in cytoplasm at 20 uM measured after 8 hrs by flow cytometry relative to TD-Nap; format: ADME, cell-based; conditions: 4t1, 8 h
[23] = Drug localization in cytoplasm of mouse 4T1 cells at 20 uM measured after 2 hrs by CLSM analysis; format: ADME, subcellular; conditions: 4t1, 2 h
[24] = Prodrug release in human MDA-MB-231 cells assessed as Nap release at 20 uM measured after 2 hrs by confocal microscopy; format: ADME, cell-based; conditions: mda-mb-231, 2 h
[25] = Drug internalization in mouse 4T1 cells assessed as green fluorescence in cytoplasm at 20 uM measured after 8 hrs by CLSM analysis; format: ADME, cell-based; conditions: 4t1, 8 h
4T1 [26] = assay: Cytotoxicity against mouse 4T1 cells assessed as cell viability at 5 to 50 uM incubated for 24 hrs by CCK8 assay relative to control; format: functional; conditions: dose 5-50 µM
4T1 [27] = assay: Induction of intracellular ROS generation in mouse 4T1 cells assessed as fold increase in DCF fluorescence at 0.5 uM incubated for 24 hrs by DCFH-DA probe based CLSM analysis relative to control; format: functional
[28] = Drug localization in mitochondria of mouse 4T1 cells at 20 uM measured after 2 hrs by CLSM analysis; format: ADME; conditions: 4t1, 2 h
[29] = Drug internalization in mouse 4T1 cells assessed as green fluorescence in cytoplasm at 20 uM measured after 1 hr by CLSM analysis; format: ADME, cell-based; conditions: 4t1, 1 h
[30] = Prodrug stability in 100 mM H2O2 assessed as compound remaining at 18 uM measured after 2 hrs by RP-HPLC analysis; format: ADME
[31] = Terminal elimination half life in Sprague-Dawley rat at 24 mg/kg, iv by HPLC-MS analysis; format: ADME, organism-based; conditions: in vivo, read-out: LambdaZ (converted)
[32] = AUC in Sprague-Dawley rat at 24 mg/kg, iv by HPLC-MS analysis; format: ADME, organism-based; conditions: in vivo
[33] = Prodrug stability in 5 mM GSH assessed as compound remaining at 18 uM measured after 12 hrs by RP-HPLC analysis; format: ADME
[34] = Prodrug stability in 10 mM H2O2 assessed as compound remaining at 18 uM measured after 12 hrs by RP-HPLC analysis; format: ADME
[35] = Cmax in Sprague-Dawley rat at 24 mg/kg, iv by HPLC-MS analysis; format: ADME, organism-based; conditions: in vivo
4T1 [36] = assay: Antitumor activity against mouse 4T1 cells implanted in BALB/c mouse assessed as reduction in tumor weight administered intravenously once every two days at equivalent dose of 10 mg/kg of HCPT for 14 days; format: functional, organism-based; conditions: route iv, time 14.0 day
4T1 [37] = assay: Antitumor activity against mouse 4T1 cells implanted in BALB/c mouse assessed as increase in pyknotic cells with highly condensed nuclei administered intravenously once every two days at equivalent dose of 10 mg/kg of HCPT for 14 days by H and E staining based analysis; format: functional, organism-based; conditions: route iv, time 14.0 day
4T1 [38] = assay: Antitumor activity against mouse 4T1 cells implanted in BALB/c mouse assessed as reduction in tumor size administered intravenously once every two days at equivalent dose of 10 mg/kg of HCPT for 14 days; format: functional, organism-based; conditions: route iv, time 14.0 day
[39] = AUC in Sprague-Dawley rat assessed as fold change at 24 mg/kg, iv by HPLC-MS analysis relative to HCPT; format: ADME, organism-based; conditions: in vivo
[40] = Cmax in Sprague-Dawley rat assessed as fold change at 24 mg/kg, iv by HPLC-MS analysis relative to HCPT; format: ADME, organism-based; conditions: in vivo
[41] = Prodrug stability in 5 uM GSH assessed as compound remaining at 18 uM measured after 24 hrs by RP-HPLC analysis; format: ADME

SMILES | IC50 (U-87 MG) [µM] | IC50 (4T1 [1]) [µM] | IC50 (PC-3) [µM] | IC50 (MCF7) [µM] | IC50 (HepG2) [µM] | IC50 (MDA-MB-231) [µM] | IC50 at 48 h [2] [µM] | Activity (4T1 [4]) | Activity (4T1 [5]) | Activity (4T1 [7]) [%] | Activity [10] | Activity [11] | inhibition (4T1 [12]) | Activity [13] | Drug uptake [23] | Drug uptake [25] | Drug uptake [28] | Drug uptake [29] | further results
C/C(=C(\CCOC(=O)CCCSC(C)(C)SCCCC(=O)O)SSCC(C)C)N(C)C=O | > 100 | > 100 | > 100 | > 100 | > 100 | > 100 | > 100 | – | – | – | – | – | – | – | – | – | – | – | –
CC[C@@]1(O)C(=O)OCc2c1cc1n(c2=O)Cc2cc3cc(O)ccc3nc2-1 [HYDROXYCAMPTOTHECIN] | 2.43 | 1.71 | 1.46 | 1.09 | 0.95 | 3.12 | 3.17 | Active; Moderate Elevations Observed | Active; Moderate Activity Observed | ~34 | – | – | – | – | – | – | – | – | AUC [3]: 1020 ng·h/mL; Cmax [6]: 1950 ng/mL; Activity [8]: Toxic; inhibition (4T1 [9]): Active; Moderate Effect Observed
CC[C@@]1(O)C(=O)OCc2c1cc1n(c2=O)Cc2cc3cc(OC(=O)CCC(=O)OCC/C(SSCC(C)C)=C(\C)N(C)C=O)ccc3nc2-1 | 5.48 | 5.34 | 3.45 | 7.32 | 5.32 | 10.4 | 10.5 | inactive | Active | ~25 | Non-toxic | Non-toxic | Active; Moderate Effect Observed | Non-toxic | – | – | – | – | –
CCCN1C(=O)c2cccc3c(OC(=O)CCCSC(C)(C)SCCCC(=O)OCC/C(SSCC(C)C)=C(\C)N(C)C=O)ccc(c23)C1=O | – | – | – | – | – | – | – | – | – | – | – | – | – | – | Active | Active | Active | Active | viability at 24 h, 50 µM [14]: > 90%; fold change (FC) [15]: ~ 2; Drug metabolism [16]: metabolite_detected; Drug uptake [17]: Active; Stability [18]: Stable; Drug uptake [19]: Active; Drug metabolism [20]: metabolite_detected; Drug metabolism [21]: metabolite_notdetected; fold change (FC) [22]: ~ 2; Drug metabolism [24]: metabolite_detected; Activity (4T1 [26]): >90%; fold change (FC) (4T1 [27]): ~6.5
CCCN1C(=O)c2cccc3c(OC(=O)CCC(=O)OCC/C(SSCC(C)C)=C(\C)N(C)C=O)ccc(c23)C1=O | – | – | – | – | – | – | – | – | – | – | – | – | – | – | Active | Not_active | Active | Active | –
CC[C@@]1(O)C(=O)OCc2c1cc1n(c2=O)Cc2cc3cc(OC(=O)CCCSC(C)(C)SCCCC(=O)OCC/C(SSCC(C)C)=C(\C)N(C)C=O)ccc3nc2-1 | 4.05 | 0.96 | 1.39 | 1.02 | 1.01 | 5.43 | 33.3 | – | Active; Most Potential Among Tested Compounds | 11 | Non-toxic | Non-toxic | Active; Most Pronounced Effect Observed Among Tested Compounds | Non-toxic | – | – | – | – | Stability [30]: Unstable; half-life [31]: 3.24 h; AUC [32]: 2720 ng·h/mL; Stability [33]: <= 10%; Stability [34]: < 12%; Cmax [35]: 7450 ng/mL; Activity (4T1 [36]): Active; Lowest Tumor Weigth Observed Among Tested Compounds; Activity (4T1 [37]): Active; Activity (4T1 [38]): Active; Exhibited Smallest Tumor Among Tested Compounds; fold change (FC) [39]: 2; fold change (FC) [40]: 4; Stability [41]: 84.8%
CCOC(=O)CCCSC(C)(C)SCCCC(=O)Oc1ccc2nc3c(cc2c1)Cn1c-3cc2c(c1=O)COC(=O)[C@]2(O)CC | 6.24 | 3.78 | 1.93 | 4.21 | 1.47 | 7.02 | 20.7 | inactive | Active | ~34 | Non-toxic | Non-toxic | Active; Moderate Effect Observed | Non-toxic | – | – | – | – | –
CCCN1C(=O)c2cccc3c(OC(=O)CCCSC(C)(C)SCCCC(=O)OCC)ccc(c23)C1=O | – | – | – | – | – | – | – | – | – | – | – | – | – | – | Active | Active | Active | Active | Drug uptake [19]: Active
